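Dose response: 5 concentrations. Exposure: 48 h. Format: 96-well plates. Endpoint: linear interpolation; highest concentration if not reached. GI50 = concentration required for 50% inhibition of growth. TGI: concentration producing complete growth inhibition.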
Legend:
Experiment in all cases: inhibition of tumour cell growth, NCI panel, 48 h
COLO 205 colon = test system: COLO 205 colon
DMS 114 small cell lung = test system: DMS 114 small cell lung
HOP-18 NSCLC = test system: HOP-18 NSCLC
HOP-62 NSCLC = test system: HOP-62 NSCLC
NCI-H226 lung = test system: NCI-H226 lung
NCI-H460 lung = test system: NCI-H460 lung
RXF 393 renal = test system: RXF 393 renal
TK-10 renal = test system: TK-10 renal
UACC-257 melanoma = test system: UACC-257 melanoma
PC-3 prostate = test system: PC-3 prostate

Row | Structure (SMILES) | TGI (COLO 205 colon) [µM] | TGI (DMS 114 small cell lung) [µM] | TGI (HOP-18 NSCLC) [µM] | TGI (HOP-62 NSCLC) [µM] | TGI (NCI-H226 lung) [µM] | TGI (NCI-H460 lung) [µM] | TGI (RXF 393 renal) [µM] | TGI (TK-10 renal) [µM] | TGI (UACC-257 melanoma) [µM] | GI50 (COLO 205 colon) [µM] | GI50 (DMS 114 small cell lung) [µM] | GI50 (HOP-18 NSCLC) [µM] | GI50 (HOP-62 NSCLC) [µM] | GI50 (NCI-H226 lung) [µM] | GI50 (NCI-H460 lung) [µM] | GI50 (PC-3 prostate) [µM] | TGI (PC-3 prostate) [µM] | GI50 (RXF 393 renal) [µM] | GI50 (TK-10 renal) [µM] | GI50 (UACC-257 melanoma) [µM]
1 | Cc1ccccc1C1=[N+]([O-])c2ccccc2C1=O | 29.1 | 27.4 | 54.4 | 57.2 | 30.7 | 37.3 | 37.3 | 32.2 | 27.9 | – | – | – | – | – | – | – | – | – | – | –
2 | Nc1nc2sc3ccccc3c(=O)n2n1 | > 100 | > 100 | > 100 | > 100 | > 100 | > 100 | > 100 | > 100 | > 100 | – | – | – | – | – | – | – | – | – | – | –
3 | Cc1oc2c(C)c3oc(=O)cc(C)c3cc2c1CNC(=O)[C@@H]1OCCOCCOCCOCCOCCOC1C(=O)O (some centres not stated) | > 100 | > 100 | > 100 | > 100 | > 100 | > 100 | > 100 | > 100 | > 100 | – | – | – | – | – | – | – | – | – | – | –
4 | CCCCCCCC(=O)NCC(O)CNC(=O)CCCCCCC | > 100 | > 100 | > 100 | > 100 | > 100 | > 100 | > 100 | > 100 | > 100 | – | – | – | – | – | – | – | – | – | – | –
5 | CCOC(=O)c1c(-c2ccccc2)oc(-c2ccccc2)c1C(=O)OCC | > 100 | > 100 | > 100 | > 100 | > 100 | – | > 100 | > 100 | > 100 | – | – | – | – | – | – | – | – | – | – | –
6 | CCC[CH2][Sn]([CH2]CCC)([O]C(=O)c1cc(F)ccc1F)[O][Sn]([CH2]CCC)([CH2]CCC)[O]C(=O)c1cc(F)ccc1F | 1.2 | 0.25 | 1.67 | 3.27 | 1.25 | 2.48 | 0.191 | 0.616 | 1.21 | 0.413 | 0.0832 | 0.654 | 1.84 | 0.354 | 1.03 | 0.759 | 2.01 | 0.0472 | 0.226 | 0.255
7 | Cc1noc2cccc(OCc3ccccc3)c12 | > 100 | > 100 | > 100 | > 100 | > 100 | > 100 | > 100 | > 100 | > 100 | – | – | – | – | – | – | – | – | – | – | –
8 | CCOC(=O)N1C2C=C(C)C(ON2C(=O)c2ccccc2)C2C(C)C(=O)N21 (configuration not stated) | > 100 | > 100 | > 100 | > 100 | > 100 | > 100 | > 100 | > 100 | > 100 | – | – | – | – | – | – | – | – | – | – | –
9 | C/C(=N\NC(N)=S)c1cc(C)c(C)cc1C | > 100 | 42.3 | > 100 | > 100 | > 100 | > 100 | 97.2 | > 100 | > 100 | – | – | – | – | – | – | – | – | – | – | –
10 | C/C=C/C1=C(Cl)C(=O)[C@@H](Cl)[C@@]1(O)C(=O)OC | 3.22 | > 34.4 | 11 | 2.42 | 15.7 | 15.2 | 4.76 | 9.14 | 3.5 | – | – | – | – | – | – | – | – | – | – | –
11 | CC(=O)Oc1cc(C)c2c(c1OC(C)=O)CC1(O2)[C@@H](C)CCC2[C@@]3(C)CC[C@H](OC(C)=O)C(C)(C)C3CC[C@]21C (some centres not stated) | 3.15 | 4.49 | 6.81 | 8.3 | 25.6 | 10.8 | 2.84 | 11.1 | 21.8 | – | – | – | – | – | – | – | – | – | – | –
12 | O=S(=O)(N/N=C/c1ccc(Cl)c(Cl)c1)c1ccccc1 | 39.6 | 87 | > 100 | > 100 | > 100 | – | 63.2 | > 100 | > 100 | – | – | – | – | – | – | – | – | – | – | –

— PubChem BioAssay (NCI)
